How the values were obtained:
Type in all cases: cell-based, rat
RBL-2H3 mast cells [1] = assay: IgE receptor/FcεRI-mediated mast cell LTC4 release; details: 1 hour prior to DNP-BSA challenge; FIG. 3B
Protocol: Monolayers of RBL-2H3 rat mast cells were sensitized with monoclonal anti-DNP IgE antibody (0.24 mg/ml) for 1 hour at 37° C. in a 48-well tissue culture plate. Unbound IgE was removed by washing the cells with phosphate buffered saline. After washing, PIPES-buffered saline containing 1 mM calcium chloride was added to the monolayers of the RBL-2H3 cells. The cells were challenged with 20 ng/ml DNP-BSA for 30 minutes at 37° C. The plate was centrifuged at 200 g for 10 minutes at 4° C. and supernatants were saved. […]
(§1) To study the effects of compound D-58, RBL-2H3 cells were incubated with compound D-58 at the indicated concentrations or vehicle for 1 hour prior to antigen challenge. Mast cell degranulation (β-hexosaminidase release, % of total) was assessed by measuring the β-hexosaminidase levels in cell free supernatants and Triton X-100 solubilized pellets using the formula: β-hexosaminidase release, % of total=100×(β-hexosaminidase level in supernatant/β-hexosaminidase level in supernatant+solubilized pellet). […]
In order to examine the effects of compound D-58 on IgE receptor/FcεRI-mediated mast cell activation and mediator release, RBL-2H3 mast cells were exposed to increasing concentrations of this ethanone or vehicle prior to challenge with antigen (DNP-BSA). […] Mast cell β-hexosaminidase release (FIG. 3A) and LTC4 release (FIG. 3B) were measured. […]

RBL-2H3 mast cells [2] = assay: IgE/antigen induced calcium mobilization in mast cells (fluo-3 imaging); details: 30 μM, 20 minutes prior to stimulation with 20 ng/ml DNP-BSA; FIG. 2A
Protocol: as §1, with “pellet). LTC4 levels in cell free supernatants of mast cells were estimated using standard procedures (ref 24).” for “pellet).”
The results are shown in FIGS. 2A-B. IgE/antigen stimulation of RBL-2H3 mast cells activates a cascade of signal transduction events, which includes tyrosine phosphorylation of several proteins and SYK/BTK-mediated activation of phospholipase C, which generates second messengers inositol 1,4,5-triphosphate (IP3) and 1,2-diacylglycerol (DAG) (ref 7). […] IgE sensitized and Ca^2+ indicator fluo-3/AM loaded RBL-2H3 cells were stimulated with 20 ng/ml antigen (DNP-BSA) in presence of 1 mM calcium chloride and the fluorescence intensity, reflecting the calcium ion concentration was measured. […]
The fluorescent Ca^2+ indicator, fluo-3/AM (Molecular Probes) was used to detect Ca^2+ mobilizations in individual cells (ref 25). […] The background fluorescence was subtracted from each image.

RBL-2H3 cells = assay: Mast cell viability by trypan blue dye exclusion; details: 300 μM, 2 hour treatment at 37° C.
From the text: The viability of compound D-58-treated mast cells ranged from 91 to 92%. […] Stimulation of RBL-2H3 mast cells using IgE/antigen as a stimulus induced the release of significant amounts of preformed granule-associated β-hexosaminidase (47.2±7.9% of total cellular content) as well as newly synthesized LTC4 (5.8±1.8 pg/10^6 cells).

Question: How did the “IgE/antigen induced LTC4 release” value (RBL-2H3 mast cells [1]) turn out when `COc1ccc(CC(=O)c2c(O)cc(O)cc2O)cc1` [Compound D-58] was run?
Answer: The value was “inhibited”.

Question: What about the “IgE/antigen induced calcium response” value (RBL-2H3 mast cells [2]) of the same molecule?
Answer: Its value is “abrogation of calcium mobilization”.

Question: What about the “effect on viability of RBL-2H3 cells” value (RBL-2H3 cells) of the same molecule?
Answer: Its value is “did not affect the viability”.
